We go through ten molecules from US9018260B2, “Indanesulfamide derivatives” (Eisai R&D Management Co., Ltd., priority 2012, dated 2015).

Data set [1] relates to corneal kindled male C57Bl/6 mice. Nature of the data set: Mouse corneal kindling model. As to conditions: for ED50: Mus musculus, dosage where 50% of animals showed seizure severity score 2 or less; for Seizure severity score (Average): Racine's scale. Format: in vivo. The text has this: Male C57Bl/6 mice were stimulated twice daily for 10 days. The electric-stimulations with current intensities of 4.0 mA and duration of 3 s (pulse frequency 50 Hz) were applied via corneally placed saline-soaked copper electrodes.
Seizure severity was ranked according to a modified scoring system of the Racine's scale (Clin. Neurophysiol. 1972:32:281-294): Score 1, mild facial clonus and eye blinking; 2, severe facial clonus, head nodding, chewing; 3, unilateral or alternating forelimb clonus; 4, bilateral forelimb clonus with rearing; 5, bilateral forelimb clonus with rearing and falling; 6, tonic fore- and/or hindlimb extension. The fully kindled animals with the severity score 4 or more were used for evaluation.
Test compounds were dissolved in the vehicle (0.45% methyl cellulose/4.5% cremophor/10% DMSO), then orally (p.o.) or intraperitoneally (i.p.) administered to mice. The vehicle was orally administered as controls.
Electric stimulation was applied at 1 hour after p.o. or 20 minutes after i.p administration. Stimulation parameters were the same as during the kindling process. After electric stimulation, seizure severity was recorded for 30 seconds according to the Racine's scale.
Four to ten animals were used for calculation of average seizure severity score at each dose.

Data set [2] has as its system male ddY mice. The data set can be described thus: Rota rod test. Format: in vivo, mouse. As to conditions: route p.o.; TD50 in rota rod test divided by ED50 in corneal kindling model. On the procedure:
(§1) Rotarod apparatus (Rota-rod MK-660C, Muromachi-Kikai Co., Ltd.) was used for measurement. The motor was turned on and the rod rotation was continuously accelerated to a rate of 40 rpm over 180 sec.
(§2) Male ddY mice at an age of 5 weeks (Japan SLC) were used. On the experiment day, the mice were pretrained and only the animals able to remain on the rod for at least 60 s were selected for experiment.
(§3) Test compounds were dissolved in the vehicle (0.45% methyl cellulose/4.5% cremophor/10% dimethyl sulfoxide), then orally (p.o.) administered to mice. The vehicle was orally administered as controls. The effects of compounds were studied in groups of six to ten animals.
(§4) Latency for mice to fall off from the rod was measured. The toxic dose at which fall off latency shorten by 50% of vehicle control value (TD50) was calculated.
(§5) Therapeutic index were calculated by dividing the respective TD50 value in rota rod test by the ED50 value determined in the corneal kindling model.
For orientation: In the rotarod test animals must keep their balance on a rotating rod.

Data set [3] in a line: Rota rod test. The format is in vivo, mouse. The note with it: male, ddY, mouse, in vivo, po; dose at which fall off latency shorten by 50% of vehicle control value. As to the method:
as §1, §2, §3, §4, §5

For data set [4], the system named is amygdala kindled male Wistar Kyoto rats. The data set can be described thus: Rat amygdala kindling model. Format: in vivo. The note with it: oral, 60 minutes after administration; FIGS. 1 to 3. On the procedure:
Male Wistar Kyoto rats (Charles River Japan) were used for the experiment. For implantation of kindling electrodes, rats were anesthetized with pentobarbital (65 mg/kg i.p.) and a tripolar electrode was implanted into the right hemisphere aimed at the basolateral amygdala using the coordinates derived from the atlas of Paxinos and Watson. Electrical stimulation of the amygdala was initiated following a recovery period of one week after surgery. […]
The threshold for induction of amygdala after discharges (ADT), i.e., epileptiform spikes on electroencephalogram (EEG), was measured for anti-seizure potency of compounds. In fully kindled rats, the ADT was determined by administering a series of stimulations beginning at […] and increasing in steps of about 25% of the previous current. […]
In the afternoon, test compounds were dissolved in the vehicle (a 1:1:1 mixture of polyethylene glycol 200, distilled water and DMSO), then orally administered to rats. […] The ADT was determined again 60 minutes after administration of drugs. The % of pre-value (morning results) was determined for each rat. Results were expressed as mean±SEM and analyzed by Dunnett's multiple comparisons test. […]

Data set [5] relates to male ddY mice. The data set can be described thus: Rota rod test. As to conditions: route i.p; TD50 in rota rod test divided by ED50 in corneal kindling model. The format is in vivo, mouse.
Data set [6] can be described thus: Rota rod test. The format is in vivo, mouse. The note with it: male, ddY, mouse, in vivo, intraperitoneal; route i.p; dose at which fall off latency shorten by 50% of vehicle control value.
The mark [7] stands for this setting: dose 10 mg/kg, p.o., stimulation 1 hour after administration.
Where [8] appears, read: dose 25 mg/kg, p.o., stimulation 1 hour after administration.
The mark [9] stands for this setting: dose 50 mg/kg, p.o., stimulation 1 hour after administration.
The mark [10] stands for this setting: dose 10 mg/kg, i.p., stimulation 20 minutes after administration.
Setting [11] is: dose 25 mg/kg, i.p., stimulation 20 minutes after administration.

SMILES strings stand for the structures.

In general, ED50 refers to the dose that gives a 50% effect, or the effect in half of the subjects. By TD50 is commonly meant the dose at which the toxic effect under study appears in half of the subjects. Molecule `NS(=O)(=O)NC1c2c(Cl)cc(F)cc2CC1(F)F` (single isomer, unassigned; (-)) [Example 6, (−)-N-(7-chloro-2,2,5-trifluoro-2,3-dihydro-1H-inden-1-yl)sulfamide] had an ED50 in data set [1] (po) of 10.2 mg/kg. Further, the “Seizure severity score (Average)” value came out at 1 in data set [1] (setting [7]), 0 in data set [1] (setting [8]) and 0.25 in data set [1] (setting [9]). Further, the Therapeutic index in the data set with male ddY mice [2] is listed as 30.1. The TD50 in “Rota rod test [3]” was 307 mg/kg. Further, the “after-discharge threshold (ADT), % of pre-value” in data set [4] is “dose-dependent elevation of after-discharge threshold”.

Molecule `NS(=O)(=O)NC1c2c(Cl)cccc2CC1(F)F` (single isomer, unassigned; (-)) [Example 8, (−)-N-(7-chloro-2,2-difluoro-2,3-dihydro-1H-inden-1-yl)sulfamide] yielded an ED50 in data set [1] (ip, route i.p) of 10.6 mg/kg. Moreover, the “Seizure severity score (Average)” value stood at 3 in data set [1] (setting [10]) and 0 in data set [1] (setting [11]). In the data set with male ddY mice [5], this molecule came in with a Therapeutic index of 11.2. The molecule also showed a TD50 in the data set “Rota rod test [6]” of 119 mg/kg.

For the molecule `NS(=O)(=O)NC1CCc2c(F)cc(F)c(F)c21` (single isomer, unassigned; (-)) [Example 29, (−)-N-(4,6,7-trifluoro-2,3-dihydro-1H-inden-1-yl)sulfamide], the 50% effect level in data set [1] (po) (ED50) was put at a dose of 15.8 mg/kg. For the same molecule, the “Seizure severity score (Average)” value stood at 3.5 in data set [1] (setting [7]), 0.83 in data set [1] (setting [8]) and 0 in data set [1] (setting [9]). Also, the Therapeutic index in the data set with male ddY mice [2] was determined as 9.93. In the data set “Rota rod test [3]”, this molecule returned a TD50 of 157 mg/kg.

As to `NS(=O)(=O)N[C@H]1c2c(F)cc(F)cc2CC1(F)F` [Example 1, N-[(1S)-2,2,5,7-tetrafluoro-2,3-dihydro-1H-inden-1-yl]sulfamide], the ED50 in data set [1] (po) was 7.9 mg/kg. The “Seizure severity score (Average)” value in data set [1] (setting [7]) was 2; in data set [1] (setting [8]), 0; in data set [1] (setting [9]), 0. The molecule further displayed a Therapeutic index with male ddY mice [2] of 49.4. The molecule also had a TD50 in “Rota rod test [3]” of 390 mg/kg.

The molecule `NS(=O)(=O)N[C@H]1c2c(F)ccc(F)c2CC1(F)F` [Example 2, N-[(1S)-2,2,4,7-tetrafluoro-2,3-dihydro-1H-inden-1-yl]sulfamide] displayed an ED50 in data set [1] (po) of 15.4 mg/kg. For the same molecule, the “Seizure severity score (Average)” value came out at 4 in data set [1] (setting [7]), 0 in data set [1] (setting [8]) and 0 in data set [1] (setting [9]). Moreover, in the data set with male ddY mice [2], the Therapeutic index is >13.0. The TD50 in the data set “Rota rod test [3]” was > 200 mg/kg.

Take `Cc1cccc2c1[C@H](NS(N)(=O)=O)C(F)(F)C2` [Example 11, N-[(1S)-2,2-Difluoro-7-methyl-2,3-dihydro-1H-inden-1-yl]sulfamide]: it took a dose of 5 mg/kg to reach the 50% effect level in data set [1] (po) (ED50). Further, the “Seizure severity score (Average)” value in data set [1] (setting [7]) was 0.5; in data set [1] (setting [8]), 0. Also, the Therapeutic index with male ddY mice [2] is 26.4. Moreover, the TD50 in the data set “Rota rod test [3]” was determined as 132 mg/kg. The “after-discharge threshold (ADT), % of pre-value” in data set [4] is “dose-dependent elevation of after-discharge threshold”.

As for `Cc1cc(F)cc2c1[C@H](NS(N)(=O)=O)C(F)(F)C2` [Example 12, N-[(1S)-2,2,5-Trifluoro-7-methyl-2,3-dihydro-1H-inden-1-yl]sulfamide], it took a dose of 5.6 mg/kg to reach the 50% effect level in data set [1] (po) (ED50). Further, the “Seizure severity score (Average)” value in data set [1] (setting [7]) and in data set [1] (setting [8]) was 0 throughout. In the data set on male ddY mice [2], the Therapeutic index is reported as 25.5. In addition, the TD50 in the data set “Rota rod test [3]” is 143 mg/kg.

In the case of `NS(=O)(=O)N[C@H]1CCc2c(F)ccc(F)c21` [Example 19, N-[(1S)-4,7-difluoro-2,3-dihydro-1H-inden-1-yl]sulfamide], in data set [1] (po), the 50% effect level (ED50) was put at a dose of 12.4 mg/kg. For the same molecule, the “Seizure severity score (Average)” value amounted to 2 in data set [1] (setting [7]) and 0 in data set [1] (setting [8]). The Therapeutic index with male ddY mice [2] turned out to be 19.0. Further, in the data set “Rota rod test [3]”, the TD50 turned out to be 235 mg/kg.

The molecule `NS(=O)(=O)N[C@H]1CCc2cc(F)cc(Cl)c21` [Example 21, N-[(1S)-7-chloro-5-fluoro-2,3-dihydro-1H-inden-1-yl]sulfamide] had an ED50 in data set [1] (po) of 10.6 mg/kg. For the same molecule, the “Seizure severity score (Average)” value in data set [1] (setting [10]) is reported as 4.25; in data set [1] (setting [11]) it was 2. The molecule also showed a Therapeutic index in the data set on male ddY mice [2] of 22.1. The molecule also returned a TD50 in the data set “Rota rod test [3]” of 234 mg/kg.

Molecule `NS(=O)(=O)NC1CCc2ccccc21` (stereo not drawn) [Reference compound, reference compound] displayed an ED50 in data set [1] (po) of 40 mg/kg. Besides, the “Seizure severity score (Average)” value in data set [1] (setting [7]) is 4.67; in data set [1] (setting [8]), 3.17; in data set [1] (setting [9]) it was 1.33. Moreover, in the data set on male ddY mice [2], the Therapeutic index is given as 5.27. In “Rota rod test [3]”, this molecule had a TD50 of 211 mg/kg.
